# Tested on: HCV 1b_Huh-Luc/Neo-ET cell line persistently expressing a bicistronic genotype 1b replicon in Huh 7 cells
# Test: HCV replicon assay (luciferase readout, 72 h)
# Format: cell-based, HCV genotype 1b
# Conditions: Hepatitis C virus, Huh-7, 72 h, read-out: Inhibition of HCV
# In short: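 EC50 values come from a four-parameter fit of luciferase signal as % of untreated control, repeated across several determinations. The signal is from the HCV 1b_Huh-Luc/Neo-ET replicon line, dosed in triplicate one day post-plating and incubated 72 h before Bright-Glo readout.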
row,Compound,EC50 [nM]
1,COC(=O)N[C@@H](C(=O)N1CCC[C@H]1c1nc2ccc(C#Cc3ccc4nc([C@@H]5CCCN5C(=O)[C@H](NC(=O)OC)C(C)C)[nH]c4c3)cc2[nH]1)C(C)C [Compound 853],< 1

# Same assay, conditions: Hepatitis C virus, Huh-7, 72 h, read-out: Inhibition of HCV genotype 1b
row,Compound,EC50 [nM]
1,COC(=O)N[C@@H](C(=O)N1CCC[C@H]1c1ncc(-c2ccc(C#Cc3ccc(-c4cnc([C@@H]5CCCN5C(=O)[C@H](NC(=O)N5CC[C@@H](O)C5)c5ccccc5)[nH]4)cc3)cc2)[nH]1)c1ccccc1 [Compound 268],< 1
2,CC(C)[C@H](NC(=O)N1CCC(O)CC1)C(=O)N1CCC[C@H]1c1ncc(-c2ccc(C#Cc3ccc(-c4cnc([C@@H]5CCCN5C(=O)[C@@H](NC(=O)N5CCC(O)CC5)C(C)C)[nH]4)cc3)cc2)[nH]1 [Compound 286],> 1000
3,COC(=O)N[C@@H](CC(C)C)C(=O)N1CCC[C@H]1c1ncc(-c2ccc(C#Cc3ccc4nc([C@@H]5CCCN5C(=O)[C@H](CC(C)C)NC(=O)OC)[nH]c4c3)cc2)[nH]1 [Compound 1067],< 1
4,COC(=O)N[C@H](C(=O)N1CCC[C@H]1c1ncc(C#Cc2ccc(-c3cnc([C@@H]4CCCN4C(=O)[C@@H](NC(=O)OC)C(C)C)[nH]3)cc2)[nH]1)C(C)C [Compound 134],< 1
5,COC(=O)N[C@H](C(=O)N1CCC[C@H]1c1ncc(-c2ccc(C#Cc3ccc(-c4cnc([C@@H]5CCCN5C(=O)[C@@H](C(C)C)N(C)C)[nH]4)cc3)cc2)[nH]1)C(C)C [Compound 954],1 to 9.9
6,CC(C)(C)OC(=O)N[C@@H](C(=O)N1CCC[C@H]1C(=O)NCc1ccc(C#Cc2cnc([C@@H]3CCCN3C(=O)[C@H](NC(=O)OC(C)(C)C)c3ccccc3)[nH]2)cc1)c1ccccc1 [Compound 119],< 1
7,COC(=O)N[C@H](C(=O)N1CCC[C@H]1c1ncc(-c2ccc(C#Cc3ccc4nc([C@@H]5CCCN5C(=O)[C@H](C(C)C)N(C)C)[nH]c4c3)cc2)[nH]1)C(C)C [Compound 1021],< 1
8,COC(=O)N[C@H](C(=O)N[C@@H](C)c1ncc(-c2ccc(C#Cc3ccc(-c4cnc([C@@H]5CCCN5C(=O)[C@@H](NC(=O)OC)[C@@H](C)O)[nH]4)cc3)cc2)[nH]1)[C@@H](C)O [Compound 291],< 1
9,CC1(O)CCN(C(=O)N[C@@H](C(=O)N2CCC[C@H]2c2nc(-c3ccc4cc(C#Cc5cnc([C@@H]6CCCN6C(=O)[C@H](NC(=O)N6CCC(C)(O)CC6)c6ccccc6)[nH]5)ccc4c3)c[nH]2)c2ccccc2)CC1 [Compound 805],< 1
10,COC(=O)N[C@@H](C(=O)N1CCC[C@H]1c1ncc(-c2ccc(C#Cc3ccc(-c4cnc([C@@H]5CCCN5C(=O)[C@@H](c5ccccc5)N5CCCC5)[nH]4)cc3)cc2)[nH]1)c1ccccc1 [Compound 178],< 1
11,C[C@H](NC(=O)[C@@H]1CCCN1C(=O)[C@H](NC(=O)C1CC1)c1ccccc1)c1ccc(C#Cc2cnc([C@@H]3CCCN3C(=O)[C@H](NC(=O)C3CC3)c3ccccc3)[nH]2)cc1 [Compound 132],10 to 999
12,CN(C)[C@@H](C(=O)N1CCC[C@H]1c1ncc(C#Cc2ccc(-c3cnc([C@@H]4CCCN4C(=O)[C@H](NC(=O)C4CC4)c4ccccc4)[nH]3)cc2)[nH]1)c1ccccc1 [Compound 133],< 1
13,COC(=O)N[C@@H](C(=O)N1CCC[C@H]1c1ncc(-c2ccc3nc(C#Cc4ccc5nc([C@@H]6CCCN6C(=O)[C@H](NC(=O)OC)c6ccccc6)[nH]c5c4)ccc3c2)[nH]1)c1ccccc1 [Compound 1109],< 1
14,COC(=O)N[C@H](C(=O)N1CCC[C@H]1c1nc(-c2ccc3cc(C#Cc4cnc([C@@H]5CCCN5C(=O)[C@@H](NC(=O)OC)C(C)C)[nH]4)ccc3c2)c[nH]1)c1ccccc1 [Compound 1078],< 1
15,COC(=O)N[C@H](C(=O)N[C@@H](C)c1ncc(-c2ccc(C#Cc3ccc(-c4cnc([C@H](C)NC(=O)[C@@H](NC(=O)OC)[C@@H](C)O)[nH]4)cc3)cc2)[nH]1)[C@@H](C)O [Compound 969],< 1
16,O=C([C@@H](c1ccccc1)N1CCOCC1)N1CCC[C@H]1c1ncc(-c2ccc(C#Cc3ccc(-c4cnc([C@@H]5CCCN5C(=O)[C@@H](c5ccccc5)N5CCOCC5)[nH]4)cc3)cc2)[nH]1 [Compound 184],< 1
17,COC(=O)N[C@H](C(=O)N1CCC[C@H]1c1ncc(-c2ccc(C#Cc3ccc(-c4cnc([C@@H]5CCCN5C(=O)[C@@H](Nc5ncccn5)C(C)C)[nH]4)cc3)cc2)[nH]1)C(C)C [Compound 1003],< 1
18,COC(=O)N[C@@H](C(=O)N1CCC[C@H]1c1ncc(C#Cc2ccc(C#Cc3cnc([C@@H]4CCCN4C(=O)[C@@H](c4ccccc4)N4CCOCC4)[nH]3)cc2)[nH]1)c1ccccc1 [Compound 313],< 1
19,COC(=O)N[C@H](C(=O)N1CCC[C@H]1c1ncc(-c2ccc(C#Cc3ccc4nc([C@@H]5CCCN5)[nH]c4c3)cc2)[nH]1)C(C)C [Compound 1056],10 to 999
20,COC(=O)N[C@H](C(=O)N1CCC[C@H]1c1ncc(-c2ccc(C#Cc3ccc4c(c3)CCCc3nc([C@@H]5CCCN5C(=O)[C@@H](NC(=O)OC)C(C)C)[nH]c3-4)cc2)[nH]1)C(C)C [Compound 1096],< 1
21,COC(=O)N[C@@H](Cc1cnc[nH]1)C(=O)N1CCC[C@H]1c1ncc(-c2ccc(C#Cc3ccc4nc([C@@H]5CCCN5C(=O)[C@H](Cc5cnc[nH]5)NC(=O)OC)[nH]c4c3)cc2)[nH]1 [Compound 1048],1 to 9.9
22,O=C(N[C@@H](C(=O)N1CCC[C@H]1c1ncc(-c2ccc(C#Cc3ccc(-c4cnc([C@@H]5CCCN5C(=O)[C@@H](c5ccccc5)N5CCOCC5)[nH]4)cc3)cc2)[nH]1)c1ccccc1)C1CC1 [Compound 237],< 1
23,COC(=O)N[C@H](C(=O)N1CCC[C@H]1c1ncc(-c2ccc3cc(C#Cc4ccc5nc([C@@H]6CCCN6C(=O)[C@@H](NC(=O)OC)C(C)C)[nH]c5c4)ccc3c2)[nH]1)C(C)C [Compound 1111],< 1
24,COC(=O)N[C@H](C(=O)N1CCC[C@H]1c1ncc(-c2ccc(C#Cc3ccc4nc([C@@H]5CCCN5C(=O)[C@@H](c5ccccc5)N(C)C)[nH]c4c3)cc2)[nH]1)C(C)C [Compound 860],< 1
25,CCN(CC)[C@@H](C(=O)N1CCC[C@H]1c1ncc(-c2ccc(C#Cc3ccc(-c4cnc([C@@H]5CCCN5C(=O)[C@@H](c5ccccc5)N(CC)CC)[nH]4)cc3)cc2)[nH]1)c1ccccc1 [Compound 173],< 1
26,COC(=O)N[C@H](C(=O)N1CCC[C@H]1c1ncc(-c2ccc(C#Cc3ccc(-c4cnc([C@@H]5CCCN5C(=O)[C@@H](Nc5cccnc5)C(C)C)[nH]4)cc3)cc2)[nH]1)C(C)C [Compound 995],< 1

# Same assay, conditions: Hepatitis C virus, Huh-7, read-out: Inhibition of HCV genotype 1b
row,Compound,EC50 [nM]
1,COC(=O)N[C@H](C(=O)N1CCC[C@H]1c1ncc(-c2ccc3cc(C#Cc4[nH]c([C@@H]5CCCN5C(=O)[C@@H](NC(=O)OC)C(C)C)nc4C(=O)O)ccc3c2)[nH]1)C(C)C [Compound 1267],< 1
2,COC(=O)N[C@H](C(=O)N1CCC[C@H]1c1ncc(-c2ccc3cc(C#Cc4[nH]c([C@@H]5CCCN5C(=O)[C@@H](NC(=O)OC)C(C)C)nc4C4CC4)ccc3c2)[nH]1)C(C)C [Compound 1300],< 1
3,COC(=O)N[C@@H](C(=O)N1CCC[C@H]1CNC(=O)c1ccc(C#Cc2ccc3nc([C@@H]4CCCN4C(=O)[C@H](NC(=O)OC)c4ccccc4)[nH]c3c2)cn1)c1ccccc1 [Compound 1241],< 1
4,COC(=O)N[C@H](C(=O)N1CCC[C@H]1c1nc2c([nH]1)-c1ccc(C#Cc3ccc4nc([C@@H]5CCCN5C(=O)[C@H](NC(=O)OC5CCOCC5)c5ccccc5)[nH]c4c3)cc1CCC2)C(C)C [Compound 1282],< 1

# Reference: patent US20130296311A1, “INHIBITORS OF HCV NS5A” (PRESIDIO PHARMACEUTICALS, INC., priority 2010, published 2013)
